Results: publication PMC6211230, “Assessment of the antiproliferative and apoptotic roles of sulfonamide carbonic anhydrase IX inhibitors in HeLa cancer cell line” (Journal of Enzyme Inhibition and Medicinal Chemistry, 2018)

Experiments:
Assay type in all cases: cell-based, human
[1] = tested on: HeLa; assay: WST-1 cytotoxicity, HeLa
Method: (§1) Cancer and normal cell lines were purchased from ATCC and stored in liquid nitrogen. HT-29 (colon adenoma cancer), HeLa (cervix adenoma cancer cell), MDA-MB-231 (breast adenoma cancer cell) and HEK-293 (embryonic kidney epithelial cell), PNT-1A (normal prostate cells) cell lines were incubated in DMEM: F-12 and RPMI-1640, including 10% Foetal Bovine Serum (FBS), 100 μg/mL streptomycin/100 IU/mL penicillin, at 37 °C in an incubator containing 5% CO2, 95% air in a humid atmosphere.
(§2) The cytotoxic effects of the substances were evaluated with WST-1 kits (Roche, Germany) in accordance with the manufacturer’s protocols. The cells were plated on 96-well plates (10^4 cells in each well). After incubation for 24 h, the media were discarded and the substances and Cisplatin as the control drug, at doses of 0, 2.5, 5, 10, 25, 50, 100, and 200 μM, were incubated for 24, 48, and 72 h. WST-1 reactive of 10 µl was added to all wells. Following 4 h incubation, the measurements were taken on a plate reader (Spectramax M5) at wavelengths of 450 and 630 nm. Graphs were then created and the IC50 value of each substance was calculated.

[2] = tested on: HT-29; assay: WST-1 cytotoxicity, HT-29
Method: as §1, §2

[3] = tested on: MDA-MB-231; assay: WST-1 cytotoxicity, MDA-MB-231
Method: as §1, §2

[4] = tested on: HEK-293; assay: WST-1 cytotoxicity, HEK-293 normal cells; conditions: HEK-293 normal cell
Method: as §1, §2

[5] = tested on: PNT-1A; assay: WST-1 cytotoxicity, PNT-1A normal cells; conditions: PNT-1A normal cell
Method: as §1, §2

[6] = tested on: HeLa cells; assay: Intracellular pH (BCFL-AM fluorometric kit); conditions: 0–25 μM
Method: (§3) Intracellular pH was measured according to the protocol of the fluorometric Intracellular pH Assay Kit (Sigma, Schnelldorf, Germany, MAK-150). Fluorescent BCFL-AM indicator that was able to pass through the cell membrane was used to measure intracellular pH fluctuations in the fluorometric intracellular pH kit. BCFL-AM was utilised to measure the reductions in intracellular pH of the cells that had been treated by various conditions. The cells were plated on black plates, as 6 × 10^4 in each well of the plate, and incubated for 24 h. The medium was replaced with BCFL-AM Reagent which had been prepared in 100 µl of HBS solution (Hank’s buffer with 20 mM HEPES, 5 mM Probenecid), then the cells were incubated at 37 °C in an atmosphere of 5% CO2 for 30 min (protected from light). Sulfonamide compound at doses of 0–25 μM was added to the HBS solution. In the next 5 min, the measurement was performed at wavelengths of 490 nm (excitation) 535 nm (emission) in spectrofluorimetry (Spectramax, M5). Extracellular pHe and lactate levels were measured with commercial kit by the blood gas device (ABL90 FLEX PLUS, Radiometer, Copenhagen, Denmark) which is routinely used in the clinical biochemistry laboratory of hospital. After the application of the substance in this method, the media were analysed directly by the device.

[7] = tested on: HeLa cells; assay: Extracellular pH (blood gas device); conditions: HeLa media, dose-dependent, initial pHe 6.4
Method: as §3

[8] = tested on: HeLa cells; assay: Intracellular ROS detection; conditions: 0–25 μM
Method: Intracellular free radicals were measured using the Cellular Reactive Oxygen Species Detection Assay commercial kit (Red Fluorescence, Abcam, Cambridge-UK, 186027). In this kit, a fluorescence probe that is permeable to the cell is used. When the probe reacts with ROS, it produces red fluorescence. The process was applied following kit protocol. The cells were plated on black plates, as 3 × 10^4 in 100 µl, and incubated for 24 h. Sulfonamide compounds in PBS were administered at doses of 0–25 μM and incubated at 37 °C in an atmosphere of 5% CO2 for 1 h (protected from light). After the compounds were poured out, the wells were filled with 100 µl of ROS Deep Red Working Solution and incubated at 37 °C in an atmosphere of 5% CO2 for 1 h. A fluorometry device (Spectramax, M5) Ex/Em = 650/675 nm (cut off = 665 nm) was used to take the measurements.

[9] = tested on: HeLa cells; assay: gamma-H2AX immunofluorescence (DNA damage); conditions: 10 and 25 μM, 24 h
Method: HeLa cells (1 × 10^4/ml) were seeded in 12-well cell culture dishes and after 24 h they were administered with the sulfonamide derivative compounds at doses of 10 and 25 µM and incubated for 24 h. The cells were washed with PBS and fixed with 100% methanol at −20 °C overnight, which was followed by PBS washing three times for 10 min for each washing. The cells were treated with 0.2% Triton X-100 in a shaker, at room temperature for 5 min. They were washed with PBS, and 1% BSA-containing PBS was then added, and incubation with primary mouse monoclonal anti-γ-H2AX antibody (Cell Signalling Technology, Danvers, MA, USA) was applied at 37 °C for 1 h. The cells were washed with PBS for 5 min three times. Secondary goat anti-mouse Alexa-488-conjugated IgG (Invitrogen, Thermo Fisher Scientific, Waltham, MA, USA) was administered and the cells were incubated at 37 °C for 20 min, followed by PBS washing for 4–5 min three times. 1 ml 70% EtOH was added, and at +4 °C, released to incubation for 5 min. 1 ml 100% EtOH was added in a shaker, which was then incubated at room temperature for 1–2 min. The nucleus was stained with DAPI and the images were recorded using an Olympus Inverted fluorescence microscope (Olympus CKX 53, DP73, Tokyo, Japan).

[10] = tested on: HeLa cells; assay: Cell cycle assay by flow cytometry; conditions: 50 μM, 24 h
Method: Cell cycle analysis was performed using BD Cycletest™ Plus DNA Reagent kit (BD Biosciences, New Jersey, USA). According to the kit protocol, 1 × 10^6 cells were plated on 6-well plates, and following 24 h, the cells were incubated for 24 h, with sulfonamide derivative compounds at concentrations of 10–25–50 μM. The cells were raised with trypsin handling and centrifuged at 1500 rpm for 5 min. A suspension was formed with 1X binding buffer, and respectively, 250 µl solution A was added and incubated in a light-free environment for 10 min; 200 µl solution B was added and incubated in a light-free environment for 10 min; and 200 µl solution C was added and incubated in at +4 °C in a protected-light environment for 10 min. All analyses were performed by flow cytometry (BD Via, New Jersey, USA).

NS(=O)(=O)c1ccc(CCN=Cc2cc(Cl)ccc2O)cc1 [Compound A-1]
IC50 ([1]; 24 h): 28.9 µM
IC50 ([1]; 48 h): 17.4 µM
IC50 ([1]; 72 h): 13.7 µM
IC50 ([2]; HT-29, 24 h): 299 µM
IC50 ([2]; HT-29, 48 h): 52.6 µM
IC50 ([2]; HT-29, 72 h): 123 µM
IC50 ([3]; MDA-MB-231, 24 h): 293 µM
IC50 ([3]; MDA-MB-231, 48 h): 65.9 µM
IC50 ([3]; MDA-MB-231, 72 h): 37.3 µM
IC50 ([4]; 24 h): 105 µM
IC50 ([4]; 48 h): 209 µM
IC50 ([4]; 72 h): 25.3 µM
IC50 ([5]; 24 h): 389 µM
IC50 ([5]; 48 h): 110 µM
IC50 ([5]; 72 h): 203 µM
intracellular pH (pHi) change [6]: reduction of pHi
extracellular pH (pHe) reached [7]: 7.3
intracellular ROS [8]: increase the intracellular ROS in HeLa cells in a dose-dependent manner
nuclear γ-H2AX foci [9]: increase the number of nuclear γ-H2AXfoci
cells in G0/G1 [10]: 65.7%
cells in G2/M [10]: 13.8%
cells in S [10]: 19.4%
